Source: ChEMBL document CHEMBL1201862, “PubChem BioAssay data set” (2004)
The source made the active and inactive calls.

Columns and labels:
Prothrombin = Prothrombin (Homo sapiens, UniProt P00734); test: Thrombin 1536 HTS Dose Response Confirmation. [Related pubchem assays: 1046 (Thrombin 1536 HTS; hits were confirmed in this assay)]; type: functional
[1] = molecular target: T1, Voltage-dependent T-type calcium channel subunit alpha-1H (Homo sapiens, UniProt O95180); type: functional
[2] = molecular target: T2, Short transient receptor potential channel 4 (Mus musculus, UniProt Q9QUQ5); test: block of DAMGO-driven TRPC4 calcium entry – cell-based, HEK293 TRPC4/mu-opioid, Fluo-4 calcium, dose response (AID 434942); type: functional;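 note: potency of inhibitors blocking the TRPC4 calcium response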
T2 sequence (Q9QUQ5 whole entry): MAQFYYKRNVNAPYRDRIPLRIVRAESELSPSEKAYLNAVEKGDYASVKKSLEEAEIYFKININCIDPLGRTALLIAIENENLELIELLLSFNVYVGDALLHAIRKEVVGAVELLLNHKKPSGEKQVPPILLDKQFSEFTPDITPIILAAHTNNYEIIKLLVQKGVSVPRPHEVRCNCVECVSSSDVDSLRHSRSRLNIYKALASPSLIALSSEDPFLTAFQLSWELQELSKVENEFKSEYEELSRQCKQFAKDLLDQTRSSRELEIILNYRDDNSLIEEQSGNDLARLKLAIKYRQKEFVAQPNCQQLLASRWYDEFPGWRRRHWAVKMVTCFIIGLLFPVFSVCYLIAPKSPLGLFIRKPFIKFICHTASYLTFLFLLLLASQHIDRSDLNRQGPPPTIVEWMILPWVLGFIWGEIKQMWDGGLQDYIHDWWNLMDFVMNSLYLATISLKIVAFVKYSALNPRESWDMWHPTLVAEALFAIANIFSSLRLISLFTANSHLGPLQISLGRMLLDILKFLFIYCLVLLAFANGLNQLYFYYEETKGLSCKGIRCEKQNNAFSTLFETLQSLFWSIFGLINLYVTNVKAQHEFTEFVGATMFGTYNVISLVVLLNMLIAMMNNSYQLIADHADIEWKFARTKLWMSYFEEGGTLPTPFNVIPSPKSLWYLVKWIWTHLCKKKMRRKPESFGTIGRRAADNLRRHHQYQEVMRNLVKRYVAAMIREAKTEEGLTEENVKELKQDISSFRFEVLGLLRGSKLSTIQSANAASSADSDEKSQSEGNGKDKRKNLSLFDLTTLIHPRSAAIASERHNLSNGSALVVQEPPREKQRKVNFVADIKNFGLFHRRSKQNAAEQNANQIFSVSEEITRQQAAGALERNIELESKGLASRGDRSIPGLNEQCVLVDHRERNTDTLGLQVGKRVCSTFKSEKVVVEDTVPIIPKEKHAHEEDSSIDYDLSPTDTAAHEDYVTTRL

[3] = molecular target: T1, Voltage-dependent T-type calcium channel subunit alpha-1H; test: Inhibitors of T-Type Calcium Channels. [Related pubchem assays (depositor defined):AID449739, AID463087, AID489005, AID493041, AID504579, AID504584, AID504619, AID504628]; type: functional
Coagulation factor XII = molecular target: T3, Coagulation factor XII (Homo sapiens, UniProt P00748); type: functional;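 note: activated factor XIIa alpha cleaving a fluorogenic AMC peptide substrate; inhibitor potency from loss of enzyme activity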
T3 sequence (P00748 whole entry): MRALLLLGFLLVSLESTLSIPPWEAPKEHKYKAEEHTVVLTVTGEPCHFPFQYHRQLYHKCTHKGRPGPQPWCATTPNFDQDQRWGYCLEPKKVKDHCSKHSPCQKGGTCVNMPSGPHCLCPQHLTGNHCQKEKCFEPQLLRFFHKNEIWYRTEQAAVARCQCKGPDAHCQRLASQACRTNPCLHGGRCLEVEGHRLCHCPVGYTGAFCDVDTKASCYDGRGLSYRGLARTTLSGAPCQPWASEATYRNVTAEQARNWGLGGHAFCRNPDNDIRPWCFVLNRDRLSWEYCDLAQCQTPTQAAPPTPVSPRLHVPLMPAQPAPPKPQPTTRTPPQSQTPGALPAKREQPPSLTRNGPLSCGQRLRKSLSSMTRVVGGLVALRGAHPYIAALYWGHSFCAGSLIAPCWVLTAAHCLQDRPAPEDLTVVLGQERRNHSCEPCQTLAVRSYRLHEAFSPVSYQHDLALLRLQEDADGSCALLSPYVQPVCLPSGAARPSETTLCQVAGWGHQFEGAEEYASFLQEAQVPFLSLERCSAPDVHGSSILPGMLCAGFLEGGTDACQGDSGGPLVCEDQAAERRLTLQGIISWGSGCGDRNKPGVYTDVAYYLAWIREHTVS

Protein skinhead-1 = molecular target: T4, Protein skinhead-1 (Caenorhabditis elegans, UniProt P34707); type: functional
T4 sequence (P34707 whole entry): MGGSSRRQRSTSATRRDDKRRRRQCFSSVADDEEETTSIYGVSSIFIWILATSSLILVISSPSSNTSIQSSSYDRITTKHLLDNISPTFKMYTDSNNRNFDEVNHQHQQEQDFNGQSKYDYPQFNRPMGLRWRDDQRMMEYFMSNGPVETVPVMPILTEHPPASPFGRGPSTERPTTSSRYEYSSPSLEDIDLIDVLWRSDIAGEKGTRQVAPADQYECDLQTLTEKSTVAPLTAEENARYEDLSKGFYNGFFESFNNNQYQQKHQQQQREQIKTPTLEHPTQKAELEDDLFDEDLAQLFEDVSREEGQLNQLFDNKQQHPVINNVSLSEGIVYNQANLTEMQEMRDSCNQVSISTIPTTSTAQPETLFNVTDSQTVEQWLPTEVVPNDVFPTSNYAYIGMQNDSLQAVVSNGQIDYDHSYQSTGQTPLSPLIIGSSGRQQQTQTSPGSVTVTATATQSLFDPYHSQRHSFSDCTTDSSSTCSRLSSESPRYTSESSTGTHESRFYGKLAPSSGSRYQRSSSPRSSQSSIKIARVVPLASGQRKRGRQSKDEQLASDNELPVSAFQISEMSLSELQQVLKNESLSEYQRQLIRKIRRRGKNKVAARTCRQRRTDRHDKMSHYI

[4] = NIH-3T3 fibroblast cytotoxicity, dose response, cytotoxicity control, cell-based, fluorescence, Alamar Blue, secondary assay (AID 2327); type: functional;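 note: NIH-3T3 mouse fibroblasts cultured with fluconazole at 8 µg/mL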
[5] = luciferase reporter signal suppression in cells – H4 neuroglioma cells, luminescence, dose response (AID 1990); type: functional, cell-based
[6] = Luminescence Cell-Based Dose Response HTS to Identify Inhibitors of 5'UTR Stem-Loop Driven Prion Protein mRNA Translation in H4 Neuroglioblastoma Cells. [Related pubchem assays: 1827 (Project Summary), 1813 (Primary HTS)]; type: functional
[7] = molecular target: T5, Heat shock factor protein 1 (Mus musculus, UniProt P38532); test: decrease of HSF1-responsive luciferase luminescence – cell-based, NIH3T3, dose retest, confirmation (AID 2382); type: functional;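 note: NIH3T3 fibroblasts with HSF1-driven luciferase reporter stressed by proteasome inhibitor MG132; luminescence from HSF1-driven luciferase expression after 8 hours of MG132 stress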
T5 sequence (P38532 whole entry): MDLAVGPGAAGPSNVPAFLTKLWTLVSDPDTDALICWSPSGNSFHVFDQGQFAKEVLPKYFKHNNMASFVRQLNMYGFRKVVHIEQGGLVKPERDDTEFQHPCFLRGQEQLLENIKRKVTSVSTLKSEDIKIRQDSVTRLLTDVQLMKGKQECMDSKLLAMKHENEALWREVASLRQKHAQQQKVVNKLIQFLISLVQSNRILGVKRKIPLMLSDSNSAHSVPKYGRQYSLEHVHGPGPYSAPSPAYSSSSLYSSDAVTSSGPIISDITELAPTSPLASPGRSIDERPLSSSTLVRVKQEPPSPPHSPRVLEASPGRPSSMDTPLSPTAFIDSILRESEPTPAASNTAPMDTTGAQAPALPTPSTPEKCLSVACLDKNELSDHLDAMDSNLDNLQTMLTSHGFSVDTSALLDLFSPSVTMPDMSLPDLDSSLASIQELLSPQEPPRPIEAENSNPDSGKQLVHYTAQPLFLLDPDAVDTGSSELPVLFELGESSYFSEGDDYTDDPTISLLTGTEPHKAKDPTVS

[8] = alpha-synuclein stem-loop luciferase translation blockers – H4 neuroglioma cells, luminescence, confirmation (AID 1988); type: functional, cell-based
[9] = fluconazole-exposed Candida albicans growth modulators – fluorescence, retest, confirmation (AID 2467); type: functional, cell-based
[10] = molecular target: Serine/threonine-protein phosphatase (Candida dubliniensis (strain CD36 / CBS 7987 / NCPF 3949 / NRRLY-17841) (Yeast), UniProt B9W6M3); test: blockers of CaCl2-induced CDRE-lacZ signaling – S. cerevisiae, luminescence, secondary, dose response (AID 2388); type: functional, cell-based;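 note: yeast reporter cells carrying a calcineurin-responsive lacZ construct stimulated with calcium chloride; luminescent beta-galactosidase reporter signal in whole cells rather than isolated phosphatase activity; potency for inhibition where a drop in reporter signal means calcineurin blockade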
[11] = molecular target: NACHT, LRR and PYD domains-containing protein 3 (Homo sapiens, UniProt Q96P20); test: NALP3 inhibitors in yeast, dose response, luminescent (AID 488799); type: functional
Sequence of NACHT, LRR and PYD domains-containing protein 3 (Q96P20 whole entry, the tested form may be a part): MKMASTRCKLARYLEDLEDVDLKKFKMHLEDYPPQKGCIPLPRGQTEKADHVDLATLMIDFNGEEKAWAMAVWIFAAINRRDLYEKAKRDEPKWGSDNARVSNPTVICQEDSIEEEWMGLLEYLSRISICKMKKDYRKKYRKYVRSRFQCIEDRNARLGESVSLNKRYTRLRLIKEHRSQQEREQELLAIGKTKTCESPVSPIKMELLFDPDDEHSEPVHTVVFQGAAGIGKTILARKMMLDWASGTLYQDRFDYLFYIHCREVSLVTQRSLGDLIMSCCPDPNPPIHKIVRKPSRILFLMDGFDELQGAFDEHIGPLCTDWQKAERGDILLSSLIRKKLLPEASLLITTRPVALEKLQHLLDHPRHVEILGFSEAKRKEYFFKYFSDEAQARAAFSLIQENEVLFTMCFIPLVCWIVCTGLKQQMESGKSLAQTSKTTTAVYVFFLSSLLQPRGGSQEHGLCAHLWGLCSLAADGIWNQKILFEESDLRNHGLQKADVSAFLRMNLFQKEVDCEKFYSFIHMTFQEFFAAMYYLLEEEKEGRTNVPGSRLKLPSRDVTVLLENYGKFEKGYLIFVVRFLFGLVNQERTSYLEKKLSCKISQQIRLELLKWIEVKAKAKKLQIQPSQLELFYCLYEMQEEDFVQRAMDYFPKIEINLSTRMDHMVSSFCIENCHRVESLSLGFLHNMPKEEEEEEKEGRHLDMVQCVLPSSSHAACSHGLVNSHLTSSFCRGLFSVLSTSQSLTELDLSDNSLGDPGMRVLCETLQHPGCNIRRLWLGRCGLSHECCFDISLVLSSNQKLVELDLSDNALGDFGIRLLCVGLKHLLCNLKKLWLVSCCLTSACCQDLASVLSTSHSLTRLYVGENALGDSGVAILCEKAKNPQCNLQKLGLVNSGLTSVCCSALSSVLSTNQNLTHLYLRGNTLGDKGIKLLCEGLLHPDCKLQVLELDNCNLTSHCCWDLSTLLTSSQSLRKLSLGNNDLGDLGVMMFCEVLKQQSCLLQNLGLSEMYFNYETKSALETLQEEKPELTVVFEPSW

[12] = THP-1 cell cytotoxicity, dose response, cytotoxicity control for non-replicating M. tuberculosis project (AID 489025); type: functional
[13] = HepG2 cell cytotoxicity, dose response, cytotoxicity control for non-replicating M. tuberculosis project (AID 489018); type: functional; settings: Mycobacterium tuberculosis
[14] = Vero E6 cell cytotoxicity, dose response, cytotoxicity control for non-replicating M. tuberculosis project, secondary assay (AID 492998); type: functional, VeroE6; settings: Vero C1008
cells = type: functional
[15] = molecular target: ATP-dependent molecular chaperone HSP82 (Candida albicans (strain WO-1) (Yeast), UniProt C4YTQ8); test: steroid-induced GRE reporter decrease in yeast – S. cerevisiae, luminescence, Hsp90 inhibitor project, dose response (AID 2400); type: functional, cell-based;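 note: beta-galactosidase luminescence from glucocorticoid response element reporter as proxy for Hsp90 function; inhibitor potency where signal loss means Hsp90 inhibition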
Cytochrome P450 3A4 = Cytochrome P450 3A4 (Homo sapiens, UniProt P08684);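 note: CYP3A4 tested as one member of a cytochrome P450 panel screen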
Sequence of Cytochrome P450 3A4 (P08684 whole entry): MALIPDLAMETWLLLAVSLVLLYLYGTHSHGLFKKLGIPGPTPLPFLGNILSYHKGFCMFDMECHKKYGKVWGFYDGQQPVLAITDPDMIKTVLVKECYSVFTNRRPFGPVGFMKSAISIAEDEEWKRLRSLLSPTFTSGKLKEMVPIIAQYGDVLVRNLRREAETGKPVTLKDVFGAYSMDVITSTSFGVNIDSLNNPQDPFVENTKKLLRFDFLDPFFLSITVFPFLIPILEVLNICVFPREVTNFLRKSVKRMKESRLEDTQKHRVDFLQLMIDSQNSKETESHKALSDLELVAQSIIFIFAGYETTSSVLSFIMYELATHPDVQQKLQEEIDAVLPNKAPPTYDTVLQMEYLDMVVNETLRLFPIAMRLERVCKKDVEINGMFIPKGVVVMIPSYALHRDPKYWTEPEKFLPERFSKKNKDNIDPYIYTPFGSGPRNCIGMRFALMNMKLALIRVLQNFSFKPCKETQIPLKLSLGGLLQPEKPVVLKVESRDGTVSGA

[16] = molecular target: T6, Kappa-type opioid receptor (Homo sapiens, UniProt P41145); test: SAR analysis of small molecule agonists of the kappa opioid receptor via a luminescent beta-arrestin assay - Set 2. [Related pubchem assays (depositor defined):AID1777, AID1785, AID1786, AID1966, AID2133, AID2136, AID2284, AID449737]; type: functional
T6 sequence (P41145 whole entry): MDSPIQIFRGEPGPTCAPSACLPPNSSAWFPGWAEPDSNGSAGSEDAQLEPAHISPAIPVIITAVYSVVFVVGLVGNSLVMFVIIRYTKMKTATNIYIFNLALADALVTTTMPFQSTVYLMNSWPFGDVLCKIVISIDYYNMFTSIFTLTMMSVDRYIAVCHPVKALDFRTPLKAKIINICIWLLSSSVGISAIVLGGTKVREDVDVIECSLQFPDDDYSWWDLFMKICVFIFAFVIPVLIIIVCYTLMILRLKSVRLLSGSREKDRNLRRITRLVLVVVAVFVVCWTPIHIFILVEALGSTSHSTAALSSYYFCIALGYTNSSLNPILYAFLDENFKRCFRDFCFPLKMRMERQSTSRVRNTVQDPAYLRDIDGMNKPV

[17] = molecular target: Intestinal-type alkaline phosphatase (Homo sapiens, UniProt P09923); test: Dose Response confirmation of uHTS hits from a small molecule inhibitors of human intestinal alkaline phosphatase via a luminescent assay. [Related pubchem assays (depositor defined):AID2544, AID2574]; type: functional
Sequence of Intestinal-type alkaline phosphatase (P09923 whole entry): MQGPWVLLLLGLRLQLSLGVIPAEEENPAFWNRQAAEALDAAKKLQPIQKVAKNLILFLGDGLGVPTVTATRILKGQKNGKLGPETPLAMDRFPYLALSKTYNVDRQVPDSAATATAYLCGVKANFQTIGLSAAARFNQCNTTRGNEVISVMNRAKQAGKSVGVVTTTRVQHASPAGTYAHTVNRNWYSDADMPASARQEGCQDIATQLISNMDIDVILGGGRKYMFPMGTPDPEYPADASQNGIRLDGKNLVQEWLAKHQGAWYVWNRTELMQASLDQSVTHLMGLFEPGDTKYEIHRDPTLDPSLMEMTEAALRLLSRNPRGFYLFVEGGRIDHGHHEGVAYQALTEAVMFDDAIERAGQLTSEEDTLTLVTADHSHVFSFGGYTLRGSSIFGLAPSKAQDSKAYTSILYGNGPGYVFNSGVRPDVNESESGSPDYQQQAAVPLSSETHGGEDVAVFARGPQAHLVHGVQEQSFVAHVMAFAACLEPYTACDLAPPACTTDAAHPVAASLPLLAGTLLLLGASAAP

Cytochrome P450 2C9 = Cytochrome P450 2C9 (Homo sapiens, UniProt P11712)
[18] = molecular target: Eukaryotic translation initiation factor 4H (Homo sapiens, UniProt Q15056); test: inhibitors of translation initiation factor eIF4H – SAR follow-up (AID 435011); type: functional
[19] = molecular target: Polyadenylate-binding protein 1 (Homo sapiens, UniProt P11940); test: PABP inhibition in translation initiation, SAR follow-up (AID 435018); type: functional
Caspase-3 = molecular target: T7, Caspase-3 (Homo sapiens, UniProt P42574); test: activators of human procaspase-3 D3A mutant – biochemical, absorbance, PC-3 D3A mutant, counter-screen for dual procaspase-3/7 activator project, dose response (AID 504328)
T7 sequence (P42574 whole entry): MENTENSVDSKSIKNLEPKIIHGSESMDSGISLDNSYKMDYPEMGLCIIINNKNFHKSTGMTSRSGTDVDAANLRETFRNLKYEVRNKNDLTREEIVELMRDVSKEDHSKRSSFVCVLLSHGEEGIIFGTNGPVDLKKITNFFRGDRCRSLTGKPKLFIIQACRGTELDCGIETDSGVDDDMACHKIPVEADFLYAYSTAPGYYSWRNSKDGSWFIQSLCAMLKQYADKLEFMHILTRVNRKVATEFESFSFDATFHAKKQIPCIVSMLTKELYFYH

Caspase-7 = Caspase-7 (Homo sapiens, UniProt P55210); test: potency of procaspase-7 enzyme activation – biochemical, absorbance, human, dual procaspase-3/-7 activator project, dose response (AID 504330)
[20] = molecular target: T6, Kappa-type opioid receptor; type: functional
Beta-galactosidase = Beta-galactosidase (Escherichia coli, UniProt Q8VNN2); type: functional
[21] = molecular target: T6, Kappa-type opioid receptor; type: functional; remark: listed apart in the source
[22] = molecular target: DNA dC->dU-editing enzyme APOBEC-3A (Homo sapiens, UniProt P31941); test: A3A deaminase inhibition for selectivity – biochemical, dose response (AID 504722); type: functional
Sequence of DNA dC->dU-editing enzyme APOBEC-3A (P31941 whole entry): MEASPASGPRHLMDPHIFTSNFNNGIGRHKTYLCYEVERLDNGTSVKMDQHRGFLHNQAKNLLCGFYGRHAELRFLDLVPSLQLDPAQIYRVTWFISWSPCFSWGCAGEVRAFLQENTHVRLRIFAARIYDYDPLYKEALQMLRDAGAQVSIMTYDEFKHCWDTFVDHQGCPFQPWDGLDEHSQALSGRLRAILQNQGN

[23] = molecular target: DNA dC->dU-editing enzyme APOBEC-3G (Homo sapiens, UniProt Q9HC16); test: Dose Response confirmation of small molecule APOBEC3G DNA Deaminase Inhibitors via a fluorescence-based single-stranded DNA deaminase assay. [Related pubchem assays (depositor defined):AID493012, AID493028]; type: functional

T1 sequence (O95180 whole entry): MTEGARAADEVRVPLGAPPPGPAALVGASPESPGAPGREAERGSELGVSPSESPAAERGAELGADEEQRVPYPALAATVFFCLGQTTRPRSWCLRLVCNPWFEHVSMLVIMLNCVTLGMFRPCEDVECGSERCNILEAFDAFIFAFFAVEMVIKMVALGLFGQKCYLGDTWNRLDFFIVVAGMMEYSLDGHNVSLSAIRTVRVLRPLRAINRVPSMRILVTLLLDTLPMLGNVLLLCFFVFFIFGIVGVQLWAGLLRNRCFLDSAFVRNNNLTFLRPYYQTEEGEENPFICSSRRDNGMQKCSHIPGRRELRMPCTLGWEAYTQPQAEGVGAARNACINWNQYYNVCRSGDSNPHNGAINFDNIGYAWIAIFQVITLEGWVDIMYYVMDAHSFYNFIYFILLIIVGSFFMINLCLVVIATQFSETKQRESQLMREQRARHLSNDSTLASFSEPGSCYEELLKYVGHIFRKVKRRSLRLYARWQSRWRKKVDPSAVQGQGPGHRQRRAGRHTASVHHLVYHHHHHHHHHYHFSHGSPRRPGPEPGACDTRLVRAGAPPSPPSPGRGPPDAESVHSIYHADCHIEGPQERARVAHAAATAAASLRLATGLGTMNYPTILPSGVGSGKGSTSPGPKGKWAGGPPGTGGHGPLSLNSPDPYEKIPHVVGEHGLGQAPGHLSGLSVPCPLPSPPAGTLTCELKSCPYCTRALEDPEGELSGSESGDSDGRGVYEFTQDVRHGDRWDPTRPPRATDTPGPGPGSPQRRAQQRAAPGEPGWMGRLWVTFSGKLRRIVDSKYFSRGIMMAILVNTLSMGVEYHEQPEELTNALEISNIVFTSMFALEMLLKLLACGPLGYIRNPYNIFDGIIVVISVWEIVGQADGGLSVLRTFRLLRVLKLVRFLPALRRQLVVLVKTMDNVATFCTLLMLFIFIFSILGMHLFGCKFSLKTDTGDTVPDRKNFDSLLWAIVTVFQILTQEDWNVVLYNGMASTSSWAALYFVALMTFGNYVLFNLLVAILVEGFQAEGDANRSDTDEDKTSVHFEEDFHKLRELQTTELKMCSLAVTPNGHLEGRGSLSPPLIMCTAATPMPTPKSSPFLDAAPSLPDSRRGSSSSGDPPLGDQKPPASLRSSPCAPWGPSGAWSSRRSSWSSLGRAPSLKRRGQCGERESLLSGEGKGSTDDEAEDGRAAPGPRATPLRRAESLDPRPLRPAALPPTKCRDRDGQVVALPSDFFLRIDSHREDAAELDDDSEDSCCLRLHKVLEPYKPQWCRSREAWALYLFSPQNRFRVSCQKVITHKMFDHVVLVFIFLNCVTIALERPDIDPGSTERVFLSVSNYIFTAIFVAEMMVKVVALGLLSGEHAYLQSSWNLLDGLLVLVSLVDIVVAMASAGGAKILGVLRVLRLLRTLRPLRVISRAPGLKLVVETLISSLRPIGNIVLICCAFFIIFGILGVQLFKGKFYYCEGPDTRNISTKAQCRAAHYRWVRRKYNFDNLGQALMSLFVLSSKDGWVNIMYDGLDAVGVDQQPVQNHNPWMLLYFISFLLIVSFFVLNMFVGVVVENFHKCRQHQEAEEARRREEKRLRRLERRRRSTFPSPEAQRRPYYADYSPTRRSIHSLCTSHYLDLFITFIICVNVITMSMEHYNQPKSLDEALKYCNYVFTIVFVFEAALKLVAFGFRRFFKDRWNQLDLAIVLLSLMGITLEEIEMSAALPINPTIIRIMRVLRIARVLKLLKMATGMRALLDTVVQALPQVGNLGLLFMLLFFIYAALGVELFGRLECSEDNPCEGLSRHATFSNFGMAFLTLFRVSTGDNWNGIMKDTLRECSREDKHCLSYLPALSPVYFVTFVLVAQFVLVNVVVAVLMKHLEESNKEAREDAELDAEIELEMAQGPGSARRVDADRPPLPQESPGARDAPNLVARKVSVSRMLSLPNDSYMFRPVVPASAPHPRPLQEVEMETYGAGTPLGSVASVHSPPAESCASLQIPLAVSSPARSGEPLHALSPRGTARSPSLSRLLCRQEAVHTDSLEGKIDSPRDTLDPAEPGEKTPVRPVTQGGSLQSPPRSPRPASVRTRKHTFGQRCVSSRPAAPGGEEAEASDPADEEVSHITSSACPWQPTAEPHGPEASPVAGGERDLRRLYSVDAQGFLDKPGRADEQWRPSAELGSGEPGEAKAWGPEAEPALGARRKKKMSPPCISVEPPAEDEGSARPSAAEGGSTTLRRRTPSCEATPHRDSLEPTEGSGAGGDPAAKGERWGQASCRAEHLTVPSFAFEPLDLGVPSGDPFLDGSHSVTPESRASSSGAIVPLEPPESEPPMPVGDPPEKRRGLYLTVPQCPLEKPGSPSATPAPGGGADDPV

SMILES: COc1ccc(C(=O)Nc2nc(-c3cccs3)cs2)cc1
- IC50 (Prothrombin): 1.14 µM (active)
- EC50 [1]: 1.08 µM (active)
- EC50 [2]: 5.31 µM (active)
- EC50 [3]: 1.1 µM (active)
- IC50 (Coagulation factor XII): > 50 µM (inactive)
- IC50 (Protein skinhead-1): 57.1 µM (inactive)

SMILES: O=c1c2ccc(Cl)cc2nc(-c2cccc(C(F)(F)F)c2)n1O
- EC50 [4]: > 150 µM (inactive)
- EC50 [5]: 10.4 µM (active)
- EC50 [6]: 9.65 µM (active)
- EC50 [7]: > 195 µM (not active)
- EC50 [8]: 6.6 µM (active)
- EC50 [9]: 0.605 µM (active)
- EC50 [10]: > 180 µM (inactive)
- IC50 [11]: 11 µM (active)
- CC50 [12]: 2.96 µM (active)
- CC50 [13]: 11.9 µM (active)
- CC50 [14]: 5.29 µM (active)
- IC50 (cells): 6.27 µM (active)
- EC50 [15]: 15.6 µM (active)
- AC50 (Cytochrome P450 3A4): 28.2 µM (inconclusive)

SMILES: O=C(CN(Cc1cccs1)C(=O)c1cccnc1)NC1CCCCCC1
- EC50 [16]: > 20 µM (inactive)

SMILES: CCCn1c(/C=C/c2ccccc2)nc2ccccc21
- IC50 [17]: > 100 µM (inactive)
- AC50 (Cytochrome P450 2C9): inconclusive

SMILES: COc1ccc([N+](=O)[O-])cc1NC(=O)C(C)OC(=O)c1ccc(NC(N)=O)cc1 (configuration not stated)
- IC50 [18]: > 100 µM (inactive)
- IC50 [19]: > 100 µM (inactive)

SMILES: CCOC(=O)/C(C#N)=C/Nc1cc(OC)ccc1OC
- EC50 (Caspase-3): > 85.3 µM (inactive)
- EC50 (Caspase-7): > 85.3 µM (inactive)

SMILES: COc1cc2c(cc1OC)C1(CCCC1)CNC2c1cccc([N+](=O)[O-])c1 (configuration not stated)
- IC50 [20]: 5.26 µM (active)
- EC50 (Beta-galactosidase): 8.91 µM (active)
- IC50 [21]: > 32 µM

SMILES: COc1ccccc1-n1c(S)nnc1-c1ccccc1
- IC50 [22]: > 100 µM (inactive)
- IC50 [23]: 4.11 µM (active)
